The values that follow come from paper PMC8558502 (The Biochemical journal, 2020).

The structures appear in SMILES notation.

The subject of assay [1] is Rhizopus delemar melanin production. The conditions noted are these: cited from earlier work.
The test system of assay [2] is R. delemar tyrosinase enzyme activity. In kind it is cell-based, Rhizopus delemar. The conditions noted are these: 10 μg/ml, 3 days, protein extract with 10 mM L-DOPA.
For a further assay, the system named is Rhizopus delemar. Put plainly: Growth. In kind it is cell-based. The conditions noted are these: kojic acid 50 μg/ml, 3 days.

`CC(C)c1ccc(C=O)cc1` [Cuminaldehyde, cuminaldehyde]: the “Reduction of melanin production from R. delemar” value in assay [1] is reported as “causes reduction of melanin production”. Further, the “Inhibitory effect on melanin biosynthesis (tyrosinase activity) of R. delemar” value in assay [2] is given as “highest”.

Take `O=c1cc(CO)occ1O` [Kojic acid]: in assay [2], the “Inhibitory effect on melanin biosynthesis (tyrosinase activity) of R. delemar” value is recorded as “highest”. In addition, the “Effect on growth of fungal hyphae” value in the assay on Rhizopus delemar was “significant reduction in the growth of fungal hyphae”.
